Assay results: patent US20140288323A1, “CYCLOPROPENIMINE CATALYST COMPOSITIONS AND PROCESSES” (THE TRUSTEES OF COLUMBIA UNIVERSITY IN THE CITY OF NEW YORK, priority 2011, published 2014)
“And” between values parts separate entries of the source, which are not always exact repeats. Equal values may be shown once. Where a name gives a salt, the structure may show the parent alone.

Columns and labels:
[1] = Storage of cyclopropenimine hydrochloride salts at room temperature; assay type: physicochemical; conditions: stored at room temperature
Experimental: (§1) tert-Butylamine (1.4 mL, 13.25 mmol, 3.0 equiv) was added to a solution of chlorocyclopropenium salt (Yoshida et al., 1971) (1.640 g, 4.42 mmol, 1.0 equiv) in CH2Cl2 (50 mL). A white precipitate was observed as the reaction mixture was stirred for 48 hours at room temperature. The crude reaction mixture was washed with 1.0 M HCl (3×30 mL), dried with anhydrous sodium sulfate and concentrated in vacuo to yield pure cyclopropenimine hydrochloride salt as a white solid (1.490 g, 97% yield). […] Neutral cyclopropenimine was prepared in situ in CD3CN to be used for pKBH+ estimation. ^1H NMR data was recorded after addition of excess sodium hydride or potassium tert-butoxide to the corresponding cyclopropenimine hydrochloride salt in CD3CN. ^1H NMR (300 MHz, CD3CN) δ 3.60 (m, 4H, NCH(CH3)2), 1.10-1.40 (m, 33H, NC(CH3)3, NCH(CH3)2).
Dicyclohexylamine (93.3 mL, 469.0 mmol, 6.0 equiv) was slowly added to a solution of tetrachlorocyclopropene (9.59 mL, 78.16 mmol, 1.0 equiv) in CH2Cl2 (800 mL) in a 3-liter round bottom flask. A white precipitate formed as the reaction mixture was stirred for a further four hours at room temperature. Next, (S)-2-amino-3-phenylpropan-1-ol (13.0 g, 86.0 mmol, 1.1 equiv) was added in one portion and the reaction mixture was stirred for an additional ten hours. The crude reaction mixture was filtered through a celite plug, then washed with 1.0 M HCl (3×400 mL), dried with anhydrous sodium sulfate and concentrated in vacuo to yield pure cyclopropenimine hydrochloride salt as a white solid (45.0 g, 99% yield). […] 13C NMR (100 MHz, CDCl3) δ 137.8, 129.2, 128.0, 126.2, 116.5, 114.5, 63.7, 61.3, 59.1, 38.4, 32.1, 31.9, 25.4, 24.4. X-Ray quality crystals were obtained by slow condensation of hexanes into a benzene solution of cyclopropenimine hydrochloride salt.
Dicyclohexylamine (1.27 mL, 6.42 mmol, 6.0 equiv) was slowly added to a solution of tetrachlorocyclopropene (0.13 mL, 1.07 mmol, 1.0 equiv) in CH2Cl2 (20 mL) at room temperature. A white precipitate formed as the reaction mixture was stirred for a further four hours. Next, (S)-1-phenylethanamine (0.28 mL, 2.14 mmol, 2.0 equiv) was added in one portion and the reaction mixture was stirred overnight. The crude reaction mixture was filtered through a celite plug, then washed with 1.0 M HCl (3×20 mL), dried with anhydrous sodium sulfate and concentrated in vacuo to yield pure cyclopropenimine hydrochloride salt as a white solid (567 mg, 96% yield).
The crude reaction mixture was washed with 1.0 M HCl (3×10 mL), dried with anhydrous sodium sulfate and concentrated in vacuo to yield pure cyclopropenimine hydrochloride salt as a pale yellow solid (440 mg, 98% yield).

[2] = Rearrangement rate study: storage stability of cyclopropenimine 5 and 5.HCl by 1H NMR; assay type: physicochemical
Experimental: Freshly obtained cyclopropenimine 5 was placed in a vial (250 mg per vial) and stored at room temperature and in a −20° C. freezer. Freshly isolated cyclopropenimine hydrochloride salt (250 mg of 5.HCl) was also stored at room temperature. At each time point, a small amount of the solid was removed and its ^1H NMR (CDCl3) was used to measure the ratio of cyclopropenimine to the rearranged product.

[3] = in acetonitrile; Kaljurand et al., 2005; cited from earlier work
[4] = pKBH+ estimation of cyclopropenimine 1 by 1H NMR equilibrium with reference bases in CD3CN; assay type: physicochemical
Experimental: The inventors have measured the acidity of the conjugate acid (pKBH+) of cyclopropenimine (compound 1),
These findings confirm for the first time that 2,3-bis(dialkylamino)cyclopropenimines are indeed potent Brønsted bases.
as §1
(§2) Cyclopropenimine hydrochloride (18.2 mg, 0.053 mmol, 1.0 equiv) and 1,8-diazabicycloundec-7-ene (7.9 μl, 0.053 mmol, 1.0 equiv) were dissolved in CD3CN. The ^1H NMR chemical shift of the cyclopropenimine isopropyl groups was used to estimate the equilibrium ratio and equilibrium constant of the reaction. The equilibrium constant was then used, with the known pKBH+ of DBU (Kaljurand et al., 2005), to determine the estimated pKBH+. The experiment was repeated in triplicate. A representative ^1H NMR spectrum of the experiment is included.
as §2, with “(13.8” for “(18.2”, “0.04” for “0.053”, “tert-Butylimino-tri(pyrrolidino)phosphorane (12.5 mg, 0.04” for “1,8-diazabicycloundec-7-ene (7.9 μl, 0.053”, “BTPP” for “DBU”, “triplicate.” for “triplicate. A representative ^1H NMR spectrum of the experiment is included.”

SMILES: CC(C)N(c1c(N(C(C)C)C(C)C)c1=NC(C)(C)C)C(C)C [1.HCl, 3-(tert-butylimino)-N1,N1,N2,N2-tetraisopropylcycloprop-1-ene-1,2-diamine hydrochloride salt]
- storage stability of the hydrochloride salt [1]: without noticeable decomposition

SMILES: Cl.OC[C@H](Cc1ccccc1)N=c1c(N(C2CCCCC2)C2CCCCC2)c1N(C1CCCCC1)C1CCCCC1 [5.HCl, (S)-2-(2,3-bis(dicyclohexylamino)cycloallylamino)-3-phenylpropan-1-ol hydrochloride salt]
- storage stability of the hydrochloride salt [1]: without noticeable decomposition
- Cyclopropenimine purity (%) ([2]; HCl salt stored at room temperature, 0 days): 100%
- Cyclopropenimine purity (%) ([2]; HCl salt stored at room temperature, 2 days): 100%
- Cyclopropenimine purity (%) ([2]; HCl salt stored at room temperature, 9 days): 100%
- Cyclopropenimine purity (%) ([2]; HCl salt stored at room temperature, 16 days): 100%
- Cyclopropenimine purity (%) ([2]; HCl salt stored at room temperature, 23 days): 100%
- Cyclopropenimine purity (%) ([2]; HCl salt stored at room temperature, 30 days): 100%
- stability of the HCl salt ([2]; at room temperature): indefinitely stable

SMILES: C[C@H](N=c1c(N(C2CCCCC2)C2CCCCC2)c1N(C1CCCCC1)C1CCCCC1)c1ccccc1.Cl [7.HCl, (S)—N1,N1,N2,N2-tetracyclohexyl-3-(1-phenylethylimino)cycloprop-1-ene-1,2-diamine hydrochloride salt]
- storage stability of the hydrochloride salt [1]: without noticeable decomposition

SMILES: CC(C)N(c1c(N(C(C)C)C(C)C)c1=N[C@H](CO)Cc1ccccc1)C(C)C.Cl [8.HCl, (S)-2-(2,3-bis(diisopropylamino)cycloallylamino)-3-phenylpropan-1-ol hydrochloride salt]
- storage stability of the hydrochloride salt [1]: without noticeable decomposition

SMILES: CN(C)C(=NC(C)(C)C)N(C)C [BTMG]
- pKBH+ [3]: 23.56

SMILES: CN(C)P(=NC(C)(C)C)(N(C)C)N(C)C [P1-^tBu]
- pKBH+ [3]: 26.98

SMILES: C1CN=C2NCCCN2C1 [TBD]
- pKBH+ [3]: 26.03

SMILES: CC(C)N(c1c(N(C(C)C)C(C)C)c1=NC(C)(C)C)C(C)C [cyclopropenimine 1, 3-(tert-butylimino)-N1,N1,N2,N2-tetraisopropylcycloprop-1-ene-1,2-diamine]
- Estimated pKBH+ (CD3CN), BTPP, Average ([4]; average of three trials, BTPP as reference base, CD3CN): 26.96
- Estimated pKBH+ (CD3CN), DBU, Average ([4]; average of three trials, DBU as reference base, CD3CN): 26.74
- acidity of the conjugate acid (pKBH+) ([4]; in acetonitrile): 26.9
- basicity relative to comparable guanidine BTMG ([4]; in acetonitrile): three orders of magnitude more basic
- Estimated pKBH+ (CD3CN), BTPP ([4]; single trial, BTPP as reference base, CD3CN): 27.00 and 26.85 and 27.03
- Estimated pKBH+ (CD3CN), DBU ([4]; single trial, DBU as reference base, CD3CN): 26.75 and 26.74

SMILES: OC[C@H](Cc1ccccc1)N=c1c(N(C2CCCCC2)C2CCCCC2)c1N(C1CCCCC1)C1CCCCC1 [cyclopropenimine 5, (S)-2-(2,3-bis(dicyclohexylamino)cycloallylamino)-3-phenylpropan-1-ol]
- half-life ([2]; neat solid in a vial, pure sample stored at room temperature, followed over 30 days, read-out: t1/2 of conversion to rearranged compound 13 (converted)): ~12 days
- Cyclopropenimine purity (%) ([2]; solid stored at rt, 0 days): 100%
- Cyclopropenimine purity (%) ([2]; solid stored at rt, 2 days): 78%
- Cyclopropenimine purity (%) ([2]; solid stored at rt, 9 days): 57%
- Cyclopropenimine purity (%) ([2]; solid stored at rt, 16 days): 39%
- Cyclopropenimine purity (%) ([2]; solid stored at rt, 23 days): 25%
- Cyclopropenimine purity (%) ([2]; solid stored at rt, 30 days): 5%
- Cyclopropenimine purity (%) ([2]; solid stored at −20° C., 0 days): 100%
- Cyclopropenimine purity (%) ([2]; solid stored at −20° C., 2 days): 100%
- Cyclopropenimine purity (%) ([2]; solid stored at −20° C., 9 days): 98%
- Cyclopropenimine purity (%) ([2]; solid stored at −20° C., 16 days): 96%
- Cyclopropenimine purity (%) ([2]; solid stored at −20° C., 23 days): 96%
- Cyclopropenimine purity (%) ([2]; solid stored at −20° C., 30 days): 94%
- sample still intact ([2]; stored at −20° C., after 30 days): 94%
